Assay results: patent US20250304620A1, “ANTIMICROBIAL PEPTIDE AND APPLICATION THEREOF” (priority 2023, published 2025)
Values after ≈ are worked out from the molar mass of the structure shown. Marks after values point to notes of the source that are not given here. Non-standard residues stand in square brackets, D forms with d. Residues, ends and D or L forms follow the SMILES beside them. dPhe(3,4-F2) = N[C@H](Cc1ccc(F)c(F)c1)C(=O)O; dPhe(4-Me) = Cc1ccc(C[C@@H](N)C(=O)O)cc1; d2Nal = N[C@H](Cc1ccc2ccccc2c1)C(=O)O

Tests used:
[1] = system: Bacillus subtilis ATCC 6633; format: cell-based
How it was run: (§1)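 The assay follows US Clinical and Laboratory Standards Institute rules: a serial twofold microdilution of each peptide against each organism gives the MIC. Experiments were carried out five times side by side.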

[2] = system: Candida albicans ATCC MYA-2876; format: cell-based
How it was run: as §1

[3] = system: Candida tropicalis ATCC 750; format: cell-based
How it was run: as §1

Candida utilis ATCC 9950 = format: cell-based
How it was run: as §1

Enterococcus ATCC 29212 = format: cell-based
How it was run: as §1

[4] = system: Escherichia coli ATCC 25922; format: cell-based
How it was run: as §1

[5] = system: Klebsiella pneumoniae ATCC 700603; format: cell-based
How it was run: as §1

[6] = system: Pseudomonas aeruginosa ATCC 27853; format: cell-based
How it was run: as §1

[7] = system: Salmonella typhimurium ATCC 14028; format: cell-based
How it was run: as §1

[8] = system: Serratia marcescens ATCC 29021; format: cell-based
How it was run: as §1

[9] = system: Staphylococcus aureus ATCC 25923; format: cell-based
How it was run: as §1

[10] = system: Pseudomonas aeruginosa ATCC 27853; assay: Injectable formulations on mice infected with peritonitis; format: in vivo, ICR mice; conditions: twice a day for 3 days; for Number of mice that died on each day after infection: day 1 / Number of mice that died on each day after infection: day 2 / Number of mice that died on each day after infection: day 3 / Number of mice that died on each day after infection: day 4 / Number of mice that died on each day after infection: day 5 / Average survival times (Days): n = 10; for Average survival times (Days): observed for 14 d; for survival time of mice infected with Pseudomonas aeruginosa: tail vein, observed 14 d
Procedure: Both female and male ICR mice were used in the test, half of the female and male mice were taken and randomly assigned into groups, with 10 mice in each group, and kept in separate cages. The mice were divided into a blank control group, a negative control group, a positive control Levofloxacin group, and AMPs LV-1 to LV-30 groups. A bacterial suspension of Pseudomonas aeruginosa ATCC 27853 was prepared, a concentration of the suspension was adjusted 1×10^9 CFU/mL for subsequent use. Except for the blank control group, all other mice were injected with the bacterial suspension (0.2 mL, 1×10^9 CFU/mL), into abdominal cavity of the mice, to establish a model. After the model was successfully established, the mice were given drug immediately according to their body weights. Except for the blank control group and the negative control group, the mice in all other groups were administered the corresponding injectable formulations via tail vein, twice a day for 3 consecutive days. The mice were then observed for 14 d. The death of mice in each group was observed, and survival time of the mice was recorded. Results of the effect of the injectable formulations of AMPs LV-1 to LV-30 on the survival time of mice infected with Pseudomonas aeruginosa are shown in Table 10.

Row | SMILES | MIC Bacillus subtilis ATCC 6633 [1] | MIC Candida albicans ATCC MYA-2876 [2] | MIC Candida tropicalis ATCC 750 [3] | MIC Candida utilis ATCC 9950 (Candida utilis ATCC 9950) | MIC Enterococcus ATCC 29212 (Enterococcus ATCC 29212) | MIC Escherichia coli ATCC 25922 [4] | MIC Klebsiella pneumoniae ATCC 700603 [5] | MIC Pseudomonas aeruginosa ATCC 27853 [6] | MIC Salmonella typhimurium ATCC 14028 [7] | MIC Serratia marcescens ATCC 29021 [8] | MIC Staphylococcus aureus ATCC 25923 [9] | Number of mice that died on each day after infection: day 1 ([10]; 0.2 mg/kg via tail vein) | Number of mice that died on each day after infection: day 2 ([10]; 0.2 mg/kg via tail vein) | Number of mice that died on each day after infection: day 3 ([10]; 0.2 mg/kg via tail vein) | Number of mice that died on each day after infection: day 1 ([10]; 1 mg/kg via tail vein) | Number of mice that died on each day after infection: day 2 ([10]; 1 mg/kg via tail vein) | Number of mice that died on each day after infection: day 3 ([10]; 1 mg/kg via tail vein) | Number of mice that died on each day after infection: day 4 ([10]; 1 mg/kg via tail vein) | Number of mice that died on each day after infection: day 5 ([10]; 1 mg/kg via tail vein) | Average survival times (Days) ([10]; 1 mg/kg via tail vein) | further results
1 | CC(=O)N[C@H](CCCCN)C(=O)N[C@H](CCCCN)C(=O)N[C@H](CC(C)C)C(=O)N[C@H](CC(C)C)C(=O)N[C@H](Cc1ccc(F)c(F)c1)C(=O)N[C@H](CCCNC(=N)N)C(=O)N[C@H](CC(C)C)C(=O)N[C@H](CCCCN)C(=O)N[C@H](Cc1ccc(F)c(F)c1)C(=O)N[C@H](CCCNC(=N)N)C(=O)N[C@H](CCCCN)C(N)=O [LV-25] (Ac-[dK][dK][dL][dL][dPhe(3,4-F2)][dR][dL][dK][dPhe(3,4-F2)][dR][dK]-NH2) | 8 µg/mL (≈ 5.03 µM) | 8 µg/mL (≈ 5.03 µM) | 8 µg/mL (≈ 5.03 µM) | 8 µg/mL (≈ 5.03 µM) | 2 µg/mL (≈ 1.26 µM) | 1 µg/mL (≈ 0.629 µM) | 8 µg/mL (≈ 5.03 µM) | 1 µg/mL (≈ 0.629 µM) | 1 µg/mL (≈ 0.629 µM) | 4 µg/mL (≈ 2.52 µM) | 2 µg/mL (≈ 1.26 µM) | 2 Mouse | 1 Mouse | 1 Mouse | 0 Mouse | 1 Mouse | 1 Mouse | 0 Mouse | 1 Mouse | 10.8**** Days | Number of mice that died on each day after infection: day 4 ([10]; 0.2 mg/kg via tail vein): 1 Mouse; Number of mice that died on each day after infection: day 5 ([10]; 0.2 mg/kg via tail vein): 1 Mouse; Average survival times (Days) ([10]; 0.2 mg/kg via tail vein): 7.2** Days; Number of mice that died on each day after infection: day 1 ([10]; 5 mg/kg via tail vein): 0 Mouse; Number of mice that died on each day after infection: day 2 ([10]; 5 mg/kg via tail vein): 3 Mouse; Number of mice that died on each day after infection: day 3 ([10]; 5 mg/kg via tail vein): 0 Mouse; Number of mice that died on each day after infection: day 4 ([10]; 5 mg/kg via tail vein): 0 Mouse; Number of mice that died on each day after infection: day 5 ([10]; 5 mg/kg via tail vein): 0 Mouse; Average survival times (Days) ([10]; 5 mg/kg via tail vein): 10.4**** Days; survival time of mice infected with Pseudomonas aeruginosa [10]: superior to those of the Levofloxacin group
2 | CC(=O)N[C@H](CCCNC(=N)N)C(=O)N[C@H](CCCCN)C(=O)N[C@H](CC(C)C)C(=O)N[C@H](CC(C)C)C(=O)N[C@H](Cc1ccc(C)cc1)C(=O)N[C@H](CCCCN)C(=O)N[C@H](CC(C)C)C(=O)N[C@H](CCCCN)C(=O)N[C@H](Cc1ccc(C)cc1)C(=O)N[C@H](CCCCN)C(=O)N[C@H](CCCNC(=N)N)C(N)=O [LV-11] (Ac-[dR][dK][dL][dL][dPhe(4-Me)][dK][dL][dK][dPhe(4-Me)][dK][dR]-NH2) | 4 µg/mL (≈ 2.59 µM) | 8 µg/mL (≈ 5.17 µM) | 8 µg/mL (≈ 5.17 µM) | 8 µg/mL (≈ 5.17 µM) | 2 µg/mL (≈ 1.29 µM) | 2 µg/mL (≈ 1.29 µM) | 4 µg/mL (≈ 2.59 µM) | 2 µg/mL (≈ 1.29 µM) | 2 µg/mL (≈ 1.29 µM) | 8 µg/mL (≈ 5.17 µM) | 1 µg/mL (≈ 0.647 µM) | – | – | – | 0 Mouse | 1 Mouse | 1 Mouse | 0 Mouse | 2 Mouse | 9.9**** Days | –
3 | CC(=O)N[C@H](CCCCN)C(=O)N[C@H](CCCCN)C(=O)N[C@H](CC(C)C)C(=O)N[C@H](CC(C)C)C(=O)N[C@H](Cc1ccc2ccccc2c1)C(=O)N[C@H](CCCCN)C(=O)N[C@H](CC(C)C)C(=O)N[C@H](CCCCN)C(=O)N[C@H](Cc1ccc2ccccc2c1)C(=O)N[C@H](CCCCN)C(=O)N[C@H](CCCCN)C(N)=O [LV-17] (Ac-[dK][dK][dL][dL][d2Nal][dK][dL][dK][d2Nal][dK][dK]-NH2) | 4 µg/mL (≈ 2.56 µM) | 8 µg/mL (≈ 5.12 µM) | 8 µg/mL (≈ 5.12 µM) | 16 µg/mL (≈ 10.2 µM) | 2 µg/mL (≈ 1.28 µM) | 1 µg/mL (≈ 0.64 µM) | 4 µg/mL (≈ 2.56 µM) | 1 µg/mL (≈ 0.64 µM) | 4 µg/mL (≈ 2.56 µM) | 2 µg/mL (≈ 1.28 µM) | 1 µg/mL (≈ 0.64 µM) | 1 Mouse | 2 Mouse | 1 Mouse | 0 Mouse | 2 Mouse | 0 Mouse | 1 Mouse | 0 Mouse | 10.6**** Days | Number of mice that died on each day after infection: day 4 ([10]; 0.2 mg/kg via tail vein): 1 Mouse; Number of mice that died on each day after infection: day 5 ([10]; 0.2 mg/kg via tail vein): 1 Mouse; Average survival times (Days) ([10]; 0.2 mg/kg via tail vein): 7.3** Days; Number of mice that died on each day after infection: day 1 ([10]; 5 mg/kg via tail vein): 0 Mouse; Number of mice that died on each day after infection: day 2 ([10]; 5 mg/kg via tail vein): 2 Mouse; Number of mice that died on each day after infection: day 3 ([10]; 5 mg/kg via tail vein): 1 Mouse; Number of mice that died on each day after infection: day 4 ([10]; 5 mg/kg via tail vein): 1 Mouse; Number of mice that died on each day after infection: day 5 ([10]; 5 mg/kg via tail vein): 0 Mouse; Average survival times (Days) ([10]; 5 mg/kg via tail vein): 9.5*** Days; survival time of mice infected with Pseudomonas aeruginosa [10]: superior to those of the Levofloxacin group
4 | CC(=O)N[C@H](CCCNC(=N)N)C(=O)N[C@H](CCCCN)C(=O)N[C@@H](C(=O)N[C@@H](C(=O)N[C@H](Cc1ccc2ccccc2c1)C(=O)N[C@H](CCCNC(=N)N)C(=O)N[C@@H](C(=O)N[C@H](CCCCN)C(=O)N[C@H](Cc1ccc2ccccc2c1)C(=O)N[C@H](CCCNC(=N)N)C(=O)N[C@H](CCCCN)C(N)=O)C(C)C)C(C)C)C(C)C [LV-16] (Ac-[dR][dK][dV][dV][d2Nal][dR][dV][dK][d2Nal][dR][dK]-NH2) | 4 µg/mL (≈ 2.49 µM) | 8 µg/mL (≈ 4.99 µM) | 4 µg/mL (≈ 2.49 µM) | 8 µg/mL (≈ 4.99 µM) | 2 µg/mL (≈ 1.25 µM) | 1 µg/mL (≈ 0.623 µM) | 2 µg/mL (≈ 1.25 µM) | 4 µg/mL (≈ 2.49 µM) | 2 µg/mL (≈ 1.25 µM) | 4 µg/mL (≈ 2.49 µM) | 1 µg/mL (≈ 0.623 µM) | – | – | – | 2 Mouse | 1 Mouse | 1 Mouse | 1 Mouse | 0 Mouse | 8.1** Days | –
5 | CC(=O)N[C@H](CCCNC(=N)N)C(=O)N[C@H](CCCCN)C(=O)N[C@H](C)C(=O)N[C@H](C)C(=O)N[C@H](Cc1ccc2ccccc2c1)C(=O)N[C@H](CCCNC(=N)N)C(=O)N[C@H](C)C(=O)N[C@H](CCCCN)C(=O)N[C@H](Cc1ccc2ccccc2c1)C(=O)N[C@H](CCCNC(=N)N)C(=O)N[C@H](CCCCN)C(N)=O [LV-15] (Ac-[dR][dK][dA][dA][d2Nal][dR][dA][dK][d2Nal][dR][dK]-NH2) | 4 µg/mL (≈ 2.63 µM) | 8 µg/mL (≈ 5.26 µM) | 8 µg/mL (≈ 5.26 µM) | 8 µg/mL (≈ 5.26 µM) | 4 µg/mL (≈ 2.63 µM) | 2 µg/mL (≈ 1.32 µM) | 4 µg/mL (≈ 2.63 µM) | 4 µg/mL (≈ 2.63 µM) | 2 µg/mL (≈ 1.32 µM) | 8 µg/mL (≈ 5.26 µM) | 2 µg/mL (≈ 1.32 µM) | – | – | – | 1 Mouse | 2 Mouse | 0 Mouse | 2 Mouse | 0 Mouse | 8.3** Days | –
